We go through 42 compounds from patent US20260097022A1, “COMPOUNDS AND USES THEREOF” (Integrated Biosciences, Inc., priority 2023, published 2026).

The experiment relates to etoposide-treated IMR-90 cells. Kind of experiment: Etoposide-induced senescence model, resazurin cell viability (screen and dose-response). Format: cell-based, human. Particulars: etoposide-induced senescence model; ratio of IC50 values between etoposide- and DMSO-treated IMR-90 fibroblasts. As for the experimental part: Cell culture. Human lung fibroblast (IMR-90) cells were obtained from ATCC (CCL-186) and passaged less than 10 times (less than 30 population doublings) for all experiments described in this example, with the exception of high-passage cells used in the model of replicative senescence (see the section on Replicative senescence below). Cells were cultured in growth media comprising Eagle's Minimum Essential Medium (EMEM: ATCC 30-2003) supplemented with 10% fetal bovine serum (FBS: Thermo Fisher 16140071) and 1% penicillin-streptomycin (Thermo Fisher 15070063). Cells were incubated in a humidity-controlled incubator at 37° C., with 5% CO2. Cells were detached using trypsin-EDTA (0.05%; Gibco 25300120).
Etoposide-induced senescence. IMR-90 cells were cultured as described above. At between 30 to 50% confluence, the media was replaced with complete growth media containing vehicle (0.5% dimethyl sulfoxide: DMSO, MilliporeSigma D5879) or complete growth media containing 50 μM etoposide (prepared as a 1:200 dilution of a 10 mM stock solution in DMSO; etoposide, MilliporeSigma E1383). Cells were treated for 2 days, after which the media was replaced with fresh growth media and cells were allowed to recover for 4 days. Cells were then plated as described below.
Chemical screening. For all screening experiments. 99 μL of cells were plated into each well of a 96-well clear flat-bottom, black polystyrene tissue-culture-treated plate (Corning 3904) at a density of ˜10+ cells/well. Plates were incubated overnight for adhesion. The day after plating. 1 μL of each compound, prepared as either a 1 mM stock solution in DMSO (10 μM final concentration screen) or 0.1 mM stock solution in DMSO (1 μM final concentration screen), was added to each well using an Agilent Bravo liquid handler. A built-in slow mixing step involving aspirating and dispensing was used to enhance distribution of the added compounds in solution. Cells were incubated for 3 days, after which resazurin (MilliporeSigma R^7017) was added to each well to a final concentration of 0.15 mM. After an additional 1 day of incubation, the fluorescence excitation/emission at 550/590 nm was read using a SpectraMaxR M3 plate reader and manufacturer software (SoftMax Pro R 6). Experiments were performed in biological duplicate.
Three-fold serial dilutions of compound were prepared in DMSO, then added to cell plates (final concentration of DMSO. 1%). Cell viability was then assayed as detailed above, and resazurin fluorescence values were linearly interpolated with respect to values from empty and positive control (non-treatment) wells. Experiments were performed in biological duplicate each on two independent occasions. When possible, chemical stocks from commercial suppliers were used: econazole nitrate (Cayman Chemical 20223), artenimol (Cayman Chemical 19846), and ABT-263 (Cayman Chemical 11500) were from Cayman Chemical, and dehydrodeguelin was aliquoted from the screening library.
Calculation of cellular viability values in dose-response curves. […] For each sample, the fluorescence intensity value was normalized by the mean of two untreated control values. Cellular viability values are therefore indicated as fractions of the cellular viability of untreated controls. Vehicle (1% DMSO) control values are included in each dose-response curve. Experiments were performed in biological duplicate each on two independent occasions.
Calculation of baseline cellular viability values. […] Additionally, baseline cellular viability values were calculated for untreated cells at the start of the experiment. Resazurin was added to a final concentration of 0.15 mM on the day of seeding (corresponding to day 0 in FIG. 7).
In general terms: Alamar Blue is a resazurin reagent that responds to reducing activity.
Consider `COc1ccc(NC(=O)CSc2nc3ccc(NC(=O)c4ccc(OC)cc4)cc3s2)cc1` [compound 85], for which the “Therapeutic Index (TI)” value is “++ (compounds with a TI of 1 to 5 were labelled as ++)”.
Under `CCCCOc1ccc(NC(=O)CSc2nc3ccc(NC(=O)c4ccc(OCCCC)cc4)cc3s2)cc1` [compound 86] stands “++ (compounds with a TI of 1 to 5 were labelled as ++)”; under `O=C(CSc1nc2ccc(NC(=O)c3ccccc3)cc2s1)Nc1cccc([N+](=O)[O-])c1` [compound 87], “++ (compounds with a TI of 1 to 5 were labelled as ++)”.
With `Cc1ccc(NC(=O)CSc2nc3ccc(NC(=O)c4ccccc4)cc3s2)c(C)c1` [compound 88], the “Therapeutic Index (TI)” value is “++ (compounds with a TI of 1 to 5 were labelled as ++)”.
Under `CCCCOc1ccc(NC(=O)CSc2nc3ccc(NC(=O)c4ccccc4)cc3s2)cc1` [compound 89] stands “++ (compounds with a TI of 1 to 5 were labelled as ++)”; under `Cc1ccc(NC(=O)C(C)Sc2nc3ccc(NC(=O)c4ccc(Cl)cc4)cc3s2)cc1` (stereo not drawn) [compound 90], “++ (compounds with a TI of 1 to 5 were labelled as ++)”; under `CCOc1ccc(C(=O)Nc2ccc3nc(SCC(N)=O)sc3c2)cc1` [compound 91], “++ (compounds with a TI of 1 to 5 were labelled as ++)”.
`O=C(CSc1nc2ccc(NC(=O)c3cccc4ccccc34)cc2s1)Nc1ccccc1F` [compound 92]: the “Therapeutic Index (TI)” value was “++ (compounds with a TI of 1 to 5 were labelled as ++)”.
Consider `Cc1ccccc1C(=O)Nc1ccc2nc(SCC(=O)NCCOc3ccccc3)sc2c1` [compound 93], for which the “Therapeutic Index (TI)” value is “++ (compounds with a TI of 1 to 5 were labelled as ++)”.
As for `CCOc1ccc(C(=O)Nc2ccc3nc(SCC(=O)Nc4ccc(C)cc4)sc3c2)cc1` [compound 94], the “Therapeutic Index (TI)” value was “++ (compounds with a TI of 1 to 5 were labelled as ++)”.
Under `Cc1cccc(NC(=O)CSc2nc3ccc(NC(=O)c4ccccc4Cl)cc3s2)c1C` [compound 95] stands “++ (compounds with a TI of 1 to 5 were labelled as ++)”.
In the case of `O=C(CSc1nc2ccc(NC(=O)c3ccccc3Cl)cc2s1)Nc1ccccc1` [compound 96] it was “++ (compounds with a TI of 1 to 5 were labelled as ++)”.
In the case of `CCc1cccc(CC)c1NC(=O)CSc1nc2ccc(NC(=O)c3ccccc3)cc2s1` [compound 97] it was “++ (compounds with a TI of 1 to 5 were labelled as ++)”; in that of `CC(C)(C)c1ccc(C(=O)Nc2ccc3nc(SCC(=O)Nc4ccccc4)sc3c2)cc1` [compound 98], “++ (compounds with a TI of 1 to 5 were labelled as ++)”.
Consider `Cc1ccc(NC(=O)CSc2nc3ccc(NC(=O)c4ccccc4C)cc3s2)c(C)c1` [compound 99], for which the “Therapeutic Index (TI)” value is given as “++ (compounds with a TI of 1 to 5 were labelled as ++)”.
For the compound `Cc1ccccc1C(=O)Nc1ccc2nc(SCC(=O)Nc3ccc(Cl)cc3)sc2c1` [compound 100], the “Therapeutic Index (TI)” value is on record as “++ (compounds with a TI of 1 to 5 were labelled as ++)”.
In the case of `COc1ccc(NC(=O)CSc2nc3ccc(NC(=O)c4ccccc4OC)cc3s2)cc1` [compound 101] it was “++ (compounds with a TI of 1 to 5 were labelled as ++)”; in that of `Cc1cccc(NC(=O)CSc2nc3ccc(NC(=O)c4cccc5ccccc45)cc3s2)c1C` [compound 102], “++ (compounds with a TI of 1 to 5 were labelled as ++)”; in that of `COc1ccc(C(=O)Nc2ccc3nc(SCC(=O)Nc4cc(C)cc(C)c4)sc3c2)cc1` [compound 103], “++ (compounds with a TI of 1 to 5 were labelled as ++)”.
In the case of `COc1ccccc1C(=O)Nc1ccc2nc(SCC(=O)Nc3ccccc3)sc2c1` [compound 104] it was “++ (compounds with a TI of 1 to 5 were labelled as ++)”; in that of `COC(=O)c1ccc(NC(=O)CSc2nc3ccc(NC(=O)c4ccccc4F)cc3s2)cc1` [compound 105], “++ (compounds with a TI of 1 to 5 were labelled as ++)”.
For `Cc1cccc(C(=O)Nc2ccc3nc(SCC(=O)Nc4ccccc4)sc3c2)c1` [compound 106], the “Therapeutic Index (TI)” value is given as “++ (compounds with a TI of 1 to 5 were labelled as ++)”.
Under `Cc1ccccc1C(=O)Nc1ccc2nc(SCC(=O)Nc3cccc(Cl)c3)sc2c1` [compound 107] stands “++ (compounds with a TI of 1 to 5 were labelled as ++)”; under `COc1ccc(NC(=O)CSc2nc3ccc(NC(=O)c4cccc5ccccc45)cc3s2)cc1` [compound 108], “++ (compounds with a TI of 1 to 5 were labelled as ++)”; under `CCCCOc1ccc(NC(=O)CSc2nc3ccc(NC(=O)c4ccccc4OC)cc3s2)cc1` [compound 109], “++ (compounds with a TI of 1 to 5 were labelled as ++)”.
As for `Cc1ccccc1C(=O)Nc1ccc2nc(SCC(=O)Nc3ccccc3Cl)sc2c1` [compound 110], the “Therapeutic Index (TI)” value is on record as “++ (compounds with a TI of 1 to 5 were labelled as ++)”.
In the case of `COc1ccc(NC(=O)CSc2nc3ccc(NC(=O)c4ccc(Cl)cc4)cc3s2)cc1` [compound 111] it was “++ (compounds with a TI of 1 to 5 were labelled as ++)”; in that of `COc1ccccc1C(=O)Nc1ccc2nc(SCC(=O)Nc3ccc(Cl)cc3)sc2c1` [compound 112], “++ (compounds with a TI of 1 to 5 were labelled as ++)”.
As for `COc1ccc(C(=O)Nc2ccc3nc(SCC(=O)Nc4cc(Cl)ccc4C)sc3c2)cc1` [compound 113], the “Therapeutic Index (TI)” value is recorded as “++ (compounds with a TI of 1 to 5 were labelled as ++)”.
Under `CC(=O)c1ccc(NC(=O)CSc2nc3ccc(NC(=O)c4ccc(Cl)cc4)cc3s2)cc1` [compound 114] stands “++ (compounds with a TI of 1 to 5 were labelled as ++)”; under `COc1ccc(NC(=O)CSc2nc3ccc(NC(=O)c4ccc(C)cc4)cc3s2)cc1` [compound 115], “++ (compounds with a TI of 1 to 5 were labelled as ++)”.
In the case of `O=C(CSc1nc2ccc(NC(=O)c3ccccc3F)cc2s1)NC1CC1` [compound 116] it was “++ (compounds with a TI of 1 to 5 were labelled as ++)”; in that of `COc1ccc(NC(=O)CSc2nc3ccc(NC(=O)c4ccc(C(C)(C)C)cc4)cc3s2)cc1` [compound 117], “++ (compounds with a TI of 1 to 5 were labelled as ++)”; in that of `Cc1cc(C)cc(NC(=O)CSc2nc3ccc(NC(=O)c4ccccc4C)cc3s2)c1` [compound 118], “++ (compounds with a TI of 1 to 5 were labelled as ++)”.
In the case of `CCOc1ccc(C(=O)Nc2ccc3nc(SCC(=O)Nc4ccccc4)sc3c2)cc1` [compound 119], the “Therapeutic Index (TI)” value is “++ (compounds with a TI of 1 to 5 were labelled as ++)”.
Under `CCOc1ccc(C(=O)Nc2ccc3nc(SCC(=O)Nc4ccc(F)cc4)sc3c2)cc1` [compound 120] stands “++ (compounds with a TI of 1 to 5 were labelled as ++)”.
In the case of `Cc1ccccc1C(=O)Nc1ccc2nc(SCC(=O)Nc3ccc(Br)cc3)sc2c1` [compound 121] it was “++ (compounds with a TI of 1 to 5 were labelled as ++)”.
In the case of `O=C(CSc1nc2ccc(NC(=O)c3ccc(F)cc3)cc2s1)Nc1ccccc1` [compound 122], the “Therapeutic Index (TI)” value is reported as “++ (compounds with a TI of 1 to 5 were labelled as ++)”.
Under `CCc1ccc(NC(=O)CSc2nc3ccc(NC(=O)c4ccccc4OC)cc3s2)cc1` [compound 123] stands “++ (compounds with a TI of 1 to 5 were labelled as ++)”.
Under `CCCCOc1ccc(C(=O)Nc2ccc3nc(SCC(=O)Nc4ccc(CC)cc4)sc3c2)cc1` [compound 124] stands “++ (compounds with a TI of 1 to 5 were labelled as ++)”; under `Cc1ccccc1C(=O)Nc1ccc2nc(SCC(=O)N(C)c3ccccc3)sc2c1` [compound 125], “++ (compounds with a TI of 1 to 5 were labelled as ++)”.
In the case of `CCCCOc1ccc(NC(=O)CSc2nc3ccc(NC(=O)c4cccc(C)c4)cc3s2)cc1` [compound 126] it was “++ (compounds with a TI of 1 to 5 were labelled as ++)”.
